Converted amounts (≈) assume the structure as drawn.
Tested on: SA 9218
Assay: MIC by standard agar dilution method
Type: cell-based
Conditions: Mueller Hinton agar, 10^4 to 10^5 cells per spot, incubated overnight at 35° C., lowest concentration that inhibits visible growth
Procedure, shortened: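 MIC read after overnight 35 °C incubation as lowest drug level preventing visible growth. Inoculum of roughly 10^4–10^5 cells per spot (0.5 McFarland, 1:20 in TSB) applied to Mueller Hinton agar containing serial 2-fold compound dilutions.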

Row | SMILES | MIC | SA 9218 MIC
1 | O=C(Nc1ccc(Br)cc1C(=O)O)c1ccc(NS(=O)(=O)c2ccccc2)cc1 [PHA-708994] | 8 µg/mL (≈ 16.8 µM) | –
2 | O=C(Nc1ccc(Br)cc1C(=O)O)c1cccc(NS(=O)(=O)c2ccc(OC(F)(F)F)cc2)c1 [PHA-708995] | 0.125 µg/mL (≈ 0.223 µM) | –
3 | O=C(Nc1ccc(Br)cc1C(=O)O)c1ccc(NS(=O)(=O)c2ccc(OC(F)(F)F)cc2)cc1 [PHA-708996] | 16 µg/mL (≈ 28.6 µM) | –
4 | O=C(Nc1ccc(Br)cc1C(=O)O)c1ccc(NS(=O)(=O)c2ccc(Cl)c(Cl)c2)cc1 [PHA-708997] | 8 µg/mL (≈ 14.7 µM) | –
5 | O=C(Cc1cccs1)Nc1ccc(C(=O)Nc2ccc(Br)cc2C(=O)O)cc1 [PHA-713386] | 128 µg/mL (≈ 279 µM) | –
6 | O=C(Nc1ccc(Br)cc1C(=O)O)c1cccc(NC(=O)c2ccc([N+](=O)[O-])o2)c1 [PHA-713387] | 128 µg/mL (≈ 270 µM) | –
7 | O=C(Nc1cccc(C(=O)Nc2ccc(Br)cc2C(=O)O)c1)c1ccc(Cl)nc1 [PHA-713389] | > 128 µg/mL | –
8 | O=C(Nc1ccc(C(=O)Nc2ccc(Br)cc2C(=O)O)cc1)c1ccc(Cl)nc1 [PHA-713390] | > 128 µg/mL | –
9 | O=C(Nc1ccc(Br)cc1C(=O)O)c1cccc(NC(=O)c2sc3ccccc3c2Cl)c1 [PHA-713391] | > 128 µg/mL | –
10 | O=C(Nc1ccc(Br)cc1C(=O)O)c1ccc(NC(=O)c2sc3ccccc3c2Cl)cc1 [PHA-713392] | > 128 µg/mL | –
11 | O=C(Nc1ccccc1)Nc1ccc(C(=O)Nc2ccc(Br)cc2C(=O)O)cc1 [PHA-713393] | > 128 µg/mL | –
12 | O=C(Nc1ccc(C(=O)Nc2ccc(Br)cc2C(=O)O)cc1)Nc1ccc(F)cc1F [PHA-713394] | 128 µg/mL (≈ 261 µM) | –
13 | N#Cc1cccc(NC(=O)Nc2ccc(C(=O)Nc3ccc(Br)cc3C(=O)O)cc2)c1 [PHA-713395] | > 128 µg/mL | –
14 | O=C(Nc1ccc(Br)cc1C(=O)O)c1cccc(NC(=S)Nc2cc(Cl)cc(Cl)c2)c1 [PHA-713396] | 8 µg/mL (≈ 14.8 µM) | –
15 | O=C(Nc1ccc(C(=O)Nc2ccc(Br)cc2C(=O)O)cc1)Nc1cc(Cl)cc(Cl)c1 [PHA-713397] | > 128 µg/mL | –
16 | COc1ccc(Cl)cc1NC(=O)Nc1cccc(C(=O)Nc2ccc(Br)cc2C(=O)O)c1 [PHA-713398] | 4 µg/mL (≈ 7.71 µM) | –
17 | O=C(Nc1ccc(Oc2ccccc2)cc1)Nc1cccc(C(=O)Nc2ccc(Br)cc2C(=O)O)c1 [PHA-713399] | 16 µg/mL (≈ 29.3 µM) | –
18 | O=C(Nc1ccc(Oc2ccccc2)cc1)Nc1ccc(C(=O)Nc2ccc(Br)cc2C(=O)O)cc1 [PHA-713400] | 16 µg/mL (≈ 29.3 µM) | –
19 | CC(=O)c1ccc(NC(=O)Nc2cccc(C(=O)Nc3ccc(Br)cc3C(=O)O)c2)cc1 [PHA-713401] | 32 µg/mL (≈ 64.5 µM) | –
20 | O=C(Nc1ccc(Br)cc1C(=O)O)c1ccc(NC(=S)Nc2ccc([N+](=O)[O-])cc2)cc1 [PHA-713403] | 64 µg/mL (≈ 124 µM) | –
21 | O=C(Nc1ccc(Br)cc1C(=O)O)c1cccc(NC(=S)Nc2ccccc2C(F)(F)F)c1 [PHA-713405] | 128 µg/mL (≈ 238 µM) | –
22 | COc1cc(NC(=S)Nc2cccc(C(=O)Nc3ccc(Br)cc3C(=O)O)c2)cc(OC)c1OC [PHA-713406] | 64 µg/mL (≈ 114 µM) | –
23 | CSc1cccc(NC(=S)Nc2cccc(C(=O)Nc3ccc(Br)cc3C(=O)O)c2)c1 [PHA-713407] | 32 µg/mL (≈ 62 µM) | –
24 | CC(=O)c1cccc(NC(=S)Nc2cccc(C(=O)Nc3ccc(Br)cc3C(=O)O)c2)c1 [PHA-713408] | 64 µg/mL (≈ 125 µM) | –
25 | O=C(Nc1ccc(Br)cc1C(=O)O)c1cccc(NS(=O)(=O)c2ccccc2)c1 [PHA-713409] | 1 µg/mL (≈ 2.1 µM) | –
26 | O=C(Nc1ccc(Br)cc1C(=O)O)c1cccc(NS(=O)(=O)c2ccc(Cl)c(Cl)c2)c1 [PHA-713410] | 1 µg/mL (≈ 1.84 µM) | –

Row | SMILES | MIC | SA 9218 MIC
27 | Cc1ccc(S(=O)(=O)Cc2ccc(C(=O)Nc3ccc(Br)cc3C(=O)O)cc2)cc1 [PHA-713411] | 32 µg/mL (≈ 65.5 µM) | –
28 | Cc1c(C(=O)Nc2ccc(Br)cc2C(=O)O)cccc1S(=O)(=O)N(C)c1ccc(Cl)cc1 [PHA-717196] | 4 µg/mL (≈ 7.44 µM) | –
29 | CC(=O)c1ccc(NC(=O)c2cccc(S(=O)(=O)N3CCc4cc(Cl)ccc43)c2)c(C(=O)O)c1 [PHA-719201] | 2 µg/mL (≈ 4.01 µM) | –
30 | Cc1c(C(=O)Nc2ccc(C#N)cc2C(=O)O)cccc1S(=O)(=O)N1CCc2cc(Cl)ccc21 [PHA-728844] | 0.25 µg/mL (≈ 0.504 µM) | –
31 | COc1c(C(=O)Nc2ccc(Br)cc2C(=O)O)cccc1S(=O)(=O)N(C)c1ccc(Cl)cc1 [PHA-735753] | 16 µg/mL (≈ 28.9 µM) | –
32 | CCCCCC(=O)NCc1ccc(C(=O)Nc2ccc(C#N)cc2C(=O)O)cc1S(=O)(=O)N1CCc2ccccc21 [PHA-738531] | 64 µg/mL (≈ 111 µM) | –
33 | CCCCCCCCCCC(=O)NCc1ccc(C(=O)Nc2ccc(C#N)cc2C(=O)O)cc1S(=O)(=O)N1CCc2ccccc21 [PHA-738532] | 32 µg/mL (≈ 49.6 µM) | –
34 | CC(=O)NCc1ccc(C(=O)Nc2ccc(C#N)cc2C(=O)O)cc1S(=O)(=O)N1CCc2ccccc21 [PHA-740499] | 128 µg/mL (≈ 247 µM) | –
35 | N#Cc1ccc(NC(=O)c2ccc(N=[N+]=[N-])c(I)c2)c(C(=O)O)c1 [PHA-748361] | 8 µg/mL (≈ 18.5 µM) | –
36 | O=C(O)c1ccc(NS(=O)(=O)c2ccc(C(=O)Nc3ccc(Br)cc3C(=O)O)cc2)cc1 [PNU-276817] | 4 µg/mL (≈ 7.7 µM) | –
37 | CN(c1ccc(Cl)cc1)S(=O)(=O)c1ccc(C(=O)Nc2ccc(Br)cc2C(=O)O)cc1 [PNU-276988] | 16 µg/mL (≈ 30.5 µM) | –
38 | CCCN(CCC)Sc1ccc(C(=O)Nc2ccc(Cl)cc2C(=O)O)cc1[N+](=O)[O-] [PNU-277231] | 1 µg/mL (≈ 2.21 µM) | –
39 | O=C(Nc1ccc(I)cc1C(=O)O)c1ccc(F)cc1 [PNU-281164] | > 128 µg/mL | –
40 | O=C(Nc1ccc(Br)cc1C(=O)O)c1ccc(S(=O)(=O)Nc2nc[nH]n2)cc1 [PNU-282859] | 32 µg/mL (≈ 68.6 µM) | –
41 | CN(c1ccc(Cl)cc1)S(=O)(=O)c1cccc(C(=O)Nc2ccc(Br)cc2C(=O)O)c1 [PNU-283076] | 1 µg/mL (≈ 1.91 µM) | –
42 | O=C(Nc1ccc(Br)cc1C(=O)O)c1ccc(S(=O)(=O)n2ccc3ccccc32)cc1 [PNU-283318] | 0.125 µg/mL (≈ 0.25 µM) | –
43 | O=C(Nc1ccc(Br)cc1C(=O)O)c1ccc(S(=O)(=O)n2cnc3ccccc32)cc1 [PNU-283371] | 4 µg/mL (≈ 7.99 µM) | –
44 | O=C(Nc1ccc(Cl)cc1C(=O)O)c1ccc(S(=O)(=O)N2CCc3ccccc32)c([N+](=O)[O-])c1 [PNU-283599] | 1 µg/mL (≈ 1.99 µM) | –
45 | CCCC(CCC)S(=O)(=O)c1ccc(C(=O)Nc2ccc(Cl)cc2C(=O)O)cc1NO.Cl [PNU-283601A] | 32 µg/mL | –
46 | CCCN(CCC)S(=O)(=O)c1ccc(C(=O)Nc2ccc(Cl)cc2C(=O)O)cc1N.Cl [PNU-283603A] | 16 µg/mL | –
47 | O=C(Nc1ccc(Cl)cc1C(=O)O)c1ccc(SCc2ccccc2)c([N+](=O)[O-])c1 [PNU-283604] | 4 µg/mL (≈ 9.03 µM) | –
48 | O=C(Nc1ccc(Br)cc1C(=O)O)c1cccc(S(=O)(=O)N2CCc3cc(Cl)ccc32)c1 [PNU-288969] | 0.25 µg/mL (≈ 0.467 µM) | –
49 | COc1ccc(S(=O)(=O)N(C)c2ccc(Cl)cc2)cc1C(=O)Nc1ccc(Br)cc1C(=O)O [PNU-289815] | 8 µg/mL (≈ 14.4 µM) | –
50 | Cc1ccc(S(=O)(=O)N(C)c2ccc(Cl)cc2)cc1C(=O)Nc1ccc(Br)cc1C(=O)O [PNU-290821] | 64 µg/mL (≈ 119 µM) | –
51 | O=C(Nc1ccc(Br)cc1C(=O)O)c1ccc(NC(=O)N2CCc3ccccc32)cc1 [PNU-290877, 5-Bromo-2-({4-[(2,3-dihydro-1H-indol-1-ylcarbonyl)amino]benzoyl}amino)benzoic acid] | > 128 µg/mL | –
52 | Nc1cc(C(=O)Nc2ccc(Cl)cc2C(=O)O)ccc1S(=O)(=O)N1CCc2ccccc21 [PNU-290881A] | 4 µg/mL (≈ 8.48 µM) | –

Row | SMILES | MIC | SA 9218 MIC
53 | O=C(Nc1ccc(Cl)cc1C(=O)O)c1ccc(SCc2ccccc2)c(Br)c1 [PNU-290882] | 1 µg/mL (≈ 2.1 µM) | –
54 | O=C(Nc1ccc(Br)cc1C(=O)O)c1ccc(S(=O)(=O)n2ccc3cc(Cl)ccc32)cc1 [PNU-290905] | 1 µg/mL (≈ 1.87 µM) | –
55 | O=C(Nc1ccc(Br)cc1C(=O)O)c1ccc(S(=O)(=O)n2ccc3ccc(Cl)cc32)cc1 [PNU-290906] | 1 µg/mL (≈ 1.87 µM) | –
56 | O=C(Nc1ccc(Br)cc1C(=O)O)c1ccc(S(=O)(=O)n2ccc3cc(F)c(Cl)cc32)cc1 [PNU-291010] | 1 µg/mL (≈ 1.81 µM) | –
57 | O=C(Nc1ccc(Br)cc1C(=O)O)c1ccc(S(=O)(=O)n2ccc3ccc(F)cc32)cc1 [PNU-291011] | 0.25 µg/mL (≈ 0.483 µM) | –
58 | CN(c1ccc(Cl)cc1)S(=O)(=O)c1ccc(Br)c(C(=O)Nc2ccc(Br)cc2C(=O)O)c1 [PNU-291061] | 16 µg/mL (≈ 26.5 µM) | –
59 | O=C(Nc1ccc(Br)cc1C(=O)O)c1ccc(S(=O)(=O)n2ccc3cc(F)ccc32)cc1 [PNU-291129] | 0.5 µg/mL (≈ 0.966 µM) | –
60 | O=C(Nc1ccc(Br)cc1C(=O)O)c1ccc(S(=O)(=O)n2cccc2)cc1 [PNU-291130] | 4 µg/mL (≈ 8.9 µM) | –
61 | COc1ccc(C(=O)Nc2ccc(Cl)cc2C(=O)O)cc1[N+](=O)[O-] [PNU-291408] | – | 32 µg/mL
62 | CCCN(CCC)S(=O)(=O)c1ccc(C(=O)Nc2ccc(Cl)cc2C(=O)O)cc1Br [PNU-291410] | 4 µg/mL (≈ 7.72 µM) | –
63 | COc1ccc2c(ccn2S(=O)(=O)c2ccc(C(=O)Nc3ccc(Br)cc3C(=O)O)cc2)c1 [PNU-291517] | 2 µg/mL (≈ 3.78 µM) | –
64 | COc1ccc(C(=O)Nc2ccc(Br)cc2C(=O)O)cc1S(=O)(=O)N(C)c1ccc(Cl)cc1 [PNU-291570] | 8 µg/mL (≈ 14.4 µM) | –
65 | Cc1ccc(C(=O)Nc2ccc(Br)cc2C(=O)O)cc1S(=O)(=O)N(C)c1ccc(Cl)cc1 [PNU-291571] | 0.5 µg/mL (≈ 0.93 µM) | –
66 | CN(c1ccc(Cl)cc1)S(=O)(=O)c1cc(C(=O)Nc2ccc(Br)cc2C(=O)O)ccc1Br [PNU-291679] | 1 µg/mL (≈ 1.66 µM) | –
67 | O=C(Nc1ccc(Br)cc1C(=O)O)c1ccc(S(=O)(=O)Nc2ccccc2O)cc1 [PNU-291997] | 1 µg/mL (≈ 2.04 µM) | –
68 | COc1ccc(C(=O)Nc2ccc(Cl)cc2C(=O)O)cc1[N+](=O)[O-] [PNU-292070] | – | 2 µg/mL
69 | CN(c1ccc(Cl)cc1)S(=O)(=O)c1cccc(C(=O)Nc2ccc([N+](=O)[O-])cc2C(=O)O)c1 [PNU-292379] | 0.5 µg/mL (≈ 1.02 µM) | –
70 | O=C(Nc1ccc(Br)cc1C(=O)O)c1ccc(C(=O)N2CCc3ccccc32)cc1 [PNU-292577] | 128 µg/mL (≈ 275 µM) | –
71 | CN(c1ccc(Cl)cc1)S(=O)(=O)c1ccc(C(=O)Nc2ccc([N+](=O)[O-])cc2C(=O)O)cc1 [PNU-293032] | 16 µg/mL (≈ 32.7 µM) | –
72 | O=C(Nc1ccc(Br)cc1C(=O)O)c1cccc(SCc2ccccc2)c1 [PNU-293049] | 4 µg/mL (≈ 9.04 µM) | –
73 | CN(c1ccc(Cl)cc1)S(=O)(=O)c1cc(C(=O)Nc2ccc(Br)cc2C(=O)O)ccc1N1CCOCC1 [PNU-293795] | 32 µg/mL (≈ 52.6 µM) | –
74 | N#Cc1ccc(C(=O)Nc2ccc(Br)cc2C(=O)O)cc1S(=O)(=O)N1CCc2ccccc21 [PNU-293905] | 8 µg/mL (≈ 15.2 µM) | –
75 | O=C(Nc1ccc(Cl)cc1C(=O)O)c1cccc(C(=O)c2ccccc2)c1 [drawing 1011] | 4 µg/mL (≈ 10.5 µM) | –
76 | O=C(Nc1ccc(Cl)cc1C(=O)O)c1ccc(C(=O)C2CCCC2)cc1 [drawing 1027] | – | 8 µg/mL

Source: patent publication US20050113450A1, “Antibacterial agents” (priority 2002, published 2005)
